Key:
[1] = system: interleukin-2 (IL-2) production in a B cell lymphoma cell line; assay: suppression of interleukin-2 (IL-2) production in a B cell lymphoma cell line; format: cell-based; conditions: 100 micromolar (μM) concentrations of the compounds, preliminary biological testing
Text: In some embodiments, the presently disclosed subject matter provides phainanoid analogs, as well as compounds that can be used as synthetic intermediates in preparing phainanoids and phainanoid analogs. In particular, the presently disclosed phainanoid analogs include the benzofuran-based 4,5-spirocycle with the strained exocyclic olefin motif present in the “western” part of the natural product phainanoids. Given the inclusion of this motif, it is believed that the presently disclosed phainanoid analogs can be useful as novel immunosuppressive agents, e.g., for the treatment of diseases characterized by an aberrant immune response, such as autoimmune and/or inflammatory diseases, as well as during transplant operations.

melting point [°C]	SMILES	immunosuppressive activity (suppression of interleukin-2 (IL-2) production) [1]
–	C[C@@]12CCCC=C1[C@@]1(C2)Oc2ccccc2C1=O [Compound 7]	complete suppression
–	C[C@]1(/C=C2\Oc3ccccc3C2=O)[C@@H](O)CC[C@]2(C)c3ccccc3CC[C@@H]12 [Compound 25]	complete suppression
174 to 177	C[C@]12C[C@@]3(Oc4ccccc4C3=O)C1=CC[C@]1(C)c3ccccc3CC[C@@H]21 [Compound 8]	complete suppression

Reference: patent US11505534B2, “Highly diastereoselective construction of the 4,5-spirocycle via palladium-catalyzed intramolecular alkenylation” (The University of Chicago, priority 2017, dated 2022)
